Measured values from PMC8445934, “Transformation of tenofovir into stable ProTide nanocrystals with long-acting pharmacokinetic profiles” (Nature Communications, 2021).
Converted amounts (≈) assume the structure as drawn. “And” between values parts separate entries of the source, which are not always exact repeats. Equal values may be shown once. Read-outs that look alike come from different tables or passages of the source.

How the values were obtained:
[1] = system: HIV-1NL4–3-eGFP; assay: microbe, parasite or virus in culture; format: cell-based; settings: for % GFP Positive: replicates
Source text: Supplementary Fi gur e 9. ProTide Biological Characterizations. […]
(1 picture or pasted object on this page, not shown here)

[2] = Aqueous and 1-octanol solubility (excess drug, shaking 48 h, UPLC-UV); format: physicochemical; settings: for solubility at 48 h: water, thermodynamic from solid
Experimental: Samples were centrifuged at 20,000 × g for 10 min to separate the solubilized drug from insoluble pellet. Aqueous supernatants were frozen, lyophilized, and then resuspended in MeOH. 1-octanol supernatants were prepared for analysis by dilution in MeOH and samples analyzed for drug content by UPLC-UV (Waters Acquity H Class).

[3] = Prodrug chemical stability of dissociated nanoformulations in pH 2.0-10.3 buffers; format: physicochemical; settings: buffers pH 2.0-10.3, 24 h
Experimental: The mixtures were centrifuged at 16,000 × g for 10 min. The supernatants were aspirated and stored at −80 °C until ultraperformance liquid chromatography tandem mass spectrometry (UPLC-MS/MS) analysis.

[4] = system: HIV-1ADA; assay: Long-term antiretroviral efficacy in MDM after single 8 h treatment (HIV-1 RT activity, p24); format: cell-based; settings: for HIV-1 RT activity: MDM, 10 µM (Figure 4D)
Experimental: (§1) To determine long-term antiretroviral efficacy following a single treatment, MDMs were plated in flat-bottom 12-well plates at a density of 1.2 × 10^6 cells/well. […] After treatment, the cells were washed twice with PBS and cultured in a fresh culture medium without drug with half-media replacement every other day. On days 1, 5, 10, 15, 20, 25, and 30 following treatment, the cells were infected with HIV-1ADA (a macrophage-tropic viral strain) at a multiplicity of infection of 0.1 infectious particles/cell for 8 h. MDM were cultured, and media samples collected on day 10 for the measurement of HIV reverse transcriptase (RT) activity as previously described[64],[65]. Cells were fixed in 2% PFA at each time point, and expression of the HIV-1p24 antigen was determined by immunocytochemistry. […] After 4 h of viral challenge, the cells were washed with PBS and given fresh media that contained the same concentrations of drug (0.00005–5,000 nM). Cell supernatants were collected 10 days later and assayed for HIV-1 RT activity as described above. Replicate studies were performed in CEM-ss CD4+ T-cell cultures. Specifically, cells were plated in 96-well plates, centrifuged at 650 × g for 5 min, and resuspended in (0.1–1,000 nM) drug-containing media for 1 h. The subsequent challenge with HIV-1NL4–3-eGFP, cell culture, sample collection, and determination of HIV-1 RT activity were performed as previously reported[13],[15].

[5] = system: HIV-1ADA; assay: Antiretroviral EC50/IC50 in MDM by HIV-1 RT activity after HIV-1ADA challenge; format: cell-based; settings: for RT activity (cpm/ mL): replicate wells
Experimental: as §1

## CC(C)OC(=O)[C@H](C)N[P@](=O)(CO[C@H](C)Cn1cnc2c(N)ncnc21)Oc1ccccc1 [TAF, tenofovir alafenamide]
[1]; Human immunodeficiency virus 1, CEM-SS
  EC50: 0.33 nM
[1]; Log Drug Concentration (uM) 0
  % GFP Positive: 0.094% and 0.243% and 0.132%
[1]; Log Drug Concentration (uM) -1
  % GFP Positive: 0.087% and 0.114% and 0.038%
[1]; Log Drug Concentration (uM) -2
  % GFP Positive: 0.071% and 0.098% (2×)
[1]; Log Drug Concentration (uM) -3
  % GFP Positive: 0.109% and 0.099% and 0.2%
[1]; Log Drug Concentration (uM) -4
  % GFP Positive: 39.441% and 35.802% and 35.047%
[1]; Log Drug Concentration (uM) -5
  % GFP Positive: 32.55% and 34.185% and 34.763%
[1]; Log Drug Concentration (uM) -6
  % GFP Positive: 38.186% and 33.243% and 31.663%
[1]; Log Drug Concentration (uM) -9
  % GFP Positive: 36.164% and 40.34% and 38.638%
[1]; Log Drug Concentration (uM) -12
  % GFP Positive: 43.7% and 40.475% and 37.429%
[2]; Figure 1C source data
  water solubility, individual replicates: 4.882
[2]; Figure 1C source data, read-out: water solubility, individual replicates
  solubility at 48 h: 6160 µg/mL (≈ 12.9 mM)
[2]; room temperature, 48 h, read-out: aqueous solubilities
  solubility at 48 h: 5520 µg/mL (≈ 11.6 mM)
[3]
  hydrolytic stability across pH: hydrolytically unstable at basic pH
[4]; 10 μM, day 30
  viral breakthrough: complete viral breakthrough
[4]; Human immunodeficiency virus 1, 240 h, read-out: viral inhibition
  inhibition at 10 µM: 84.5%
[4]; challenge day 1, replicates
  HIV-1 RT activity: 1.694 % of postive control and 1.963 % of postive control and 1.344 % of postive control and 1.665 % of postive control and 1.247 % of postive control and 0.8808 % of postive control
[4]; challenge day 5, replicates
  HIV-1 RT activity: 1.516 % of postive control and 1.942 % of postive control and 1.963 % of postive control and 1.828 % of postive control and 2.306 % of postive control and 0.4466 % of postive control
[4]; challenge day 10, replicates
  HIV-1 RT activity: 13.8971 % of postive control and 15.2412 % of postive control and 16.845 % of postive control and 11.6649 % of postive control and 19.6336 % of postive control and 17.0654 % of postive control
[4]; challenge day 15, replicates
  HIV-1 RT activity: 10.4755 % of postive control and 3.747 % of postive control and 7.537 % of postive control and 13.2434 % of postive control and 32.8105 % of postive control
[4]; challenge day 30, replicates
  HIV-1 RT activity: 86.3496 % of postive control and 48.9086 % of postive control and 79.0354 % of postive control and 54.8629 % of postive control
[5]; Human immunodeficiency virus 1, 240 h
  EC50: 0.22 nM
[5]; drug concentration 5e-6 nM
  RT activity (cpm/ mL): 29.681 cpm/ mL and 30.024 cpm/ mL and 28.68 cpm/ mL
[5]; drug concentration 5e-5 nM
  RT activity (cpm/ mL): 35.114 cpm/ mL and 41.925 cpm/ mL and 38.687 cpm/ mL
[5]; drug concentration 0.0005 nM
  RT activity (cpm/ mL): 33.176 cpm/ mL and 39.763 cpm/ mL and 30.439 cpm/ mL
[5]; drug concentration 0.005 nM
  RT activity (cpm/ mL): 15.954 cpm/ mL and 19.78 cpm/ mL and 30.439 cpm/ mL
[5]; drug concentration 0.05 nM
  RT activity (cpm/ mL): 13.503 cpm/ mL and 38.469 cpm/ mL
[5]; drug concentration 0.5 nM
  RT activity (cpm/ mL): 16.77 cpm/ mL and 16.849 cpm/ mL and 12.873 cpm/ mL
[5]; drug concentration 5 nM
  RT activity (cpm/ mL): 0.361 cpm/ mL and 0.448 cpm/ mL and 0.415 cpm/ mL
[5]; drug concentration 50 nM
  RT activity (cpm/ mL): 0.452 cpm/ mL and 0.242 cpm/ mL
[5]; drug concentration 500 nM
  RT activity (cpm/ mL): 0.23 cpm/ mL and 0.324 cpm/ mL and 0.407 cpm/ mL
[5]; drug concentration 5000 nM
  RT activity (cpm/ mL): 0.233 cpm/ mL and 0.252 cpm/ mL and 0.245 cpm/ mL
